In ChEMBL document CHEMBL5727678, “CARM1 inhibitors and uses thereof” (2020):
pIC50: −log10 of the molar value.

Test: Enzyme Assay: The assays were all performed in a buffer consisting of 20 mM Bicine (pH=7.6), 1 mM TCEP, 0.005% BSG, and 0.002% Tween 20, prepared on the day of use. Compounds in 100% DMSO (1 ul) were spotted into a polypropylene 384-well V-bottom plates using a Platemate Plus outfitted with a 384-channel head . DMSO (1 ul) was added to Columns 11, 12, 23, 24, rows A-H for the maximum signal control and 1 ul of SAH, a known product and inhibitor of CARM1, was added to columns 11, 12, 23, 24, rows I-P for the minimum signal control. A cocktail (40 ul) containing the CARM1 enzyme was added by Multidrop Combi. The compounds were allowed to incubate with CARM1 for 30 min at room temperature, then a cocktail (10 ul) containing 3H-SAM and peptide was added to initiate the reaction (final volume=51 ul). The final concentrations of the components were as follows: CARM1 was 0.25 nM, 3H-SAM was 30 nM, peptide was 250 nM, SAH in the minimum signal control wells was 1 mM, and the DMSO concentration was 2%. The assays were stopped by the addition of non-radiolabeled SAM (10 ul) to a final concentration of 300 uM, which dilutes the 3H-SAM to a level where its incorporation into the peptide substrate is no longer detectable. 50 ul of the reaction in the 384-well polypropylene plate was then transferred to a 384-well Flashplate and the biotinylated peptides were allowed to bind to the streptavidin surface for at least 1 hour before being washed once with 0.1% Tween20 in a Biotek ELx405 plate washer.

Question: With CNC[C@@H](O)COc1ccc(Cl)c(-c2nc(-c3c(C)noc3C)c(C)c(N3Cc4c(C)nn(C)c4C3)n2)c1 as the compound, how does the pIC50 read?
Answer: Its pIC50 is over 7.00.

Question: With CNCC(O)COc1cccc(-c2nc(-c3c(C)noc3C)cc(N3C[C@@H]4C[C@H]3CN4C(=O)OC)n2)c1 (stereo partly drawn) as the compound, how does the pIC50 read?
Answer: The pIC50 was over 7.00.

Question: With CNCC(O)COc1cccc(-c2nc(-c3c(C)noc3C)c(C)c(N3CCO[C@H](CNC)C3)n2)c1 (stereo partly drawn) as the compound, how does the pIC50 read?
Answer: The pIC50 was over 7.00.
